Laboratory results taken from patent US9120249B2, “Implant device release agents and methods of using same” (ENDO PHARMACEUTICALS SOLUTIONS INC., priority 2007, dated 2015).
Values belong to the molecule of their own block, whether it stands above or below them.

Tests used:
[1] = Tensile strength of gamma irradiated cartridges, initially and after storage at 37° C.; format: physicochemical; settings: initially after irradiation and after 3 and 8 months storage at 37° C.
Protocol: Approximately 15-20 cartridges of each formulation were prepared and gamma irradiated at 10-11 kGy. The tensile strength of five cartridges from each formulation was measured initially. The remaining cartridges were stored at 37° C. and tested for tensile strength again at 3 and 8 months.

[2] = cited from earlier work; for CMC: critical micelle concentration; for HLB: hydrophilic-lipophilic balance

tensile strength of cartridges, in words [1]: seems to be effective as well
Molecule: O=C1O[C@H]([C@@H](O)CO)C(O)=C1O [Ascorbic acid, ascorbic acid]

Molecule: Sucrose monolaurate
CMC [2]: 0.2 mM
HLB [2]: ~8

Molecule: Triton X-100
CMC [2]: 0.2 to 0.9 mM
HLB [2]: 13.5

Molecule: CCCCCCCC/C=C\CCCCCCCC(=O)OCCOCC(OCCO)C1OCC(OCCO)C1OCCO (stereo not shown) [Tween 80]
CMC [2]: 0.012 mM
HLB [2]: 15
